Measurements published in paper PMC9785921, “Evaluation of Chiral Organosulfur Compounds on Their Activity against the Malaria Parasite Plasmodium falciparum” (Tropical Medicine and Infectious Disease, 2022).
Where two headings read alike, the source gives them in different places.

How the values were obtained:
[1] = test system: P. falciparum NF54 gametocytes; assay: Gametocyte toxicity test; assay type: cell-based, Plasmodium falciparum; conditions: 48 h treatment, then 7 d drug-free; for reduction of mature gametocyte numbers / reduction of mature gametocyte numbers (in words): compound at IC50 concentration; for reduction in stage IV and V gametocyte numbers: compound at IC90 concentration
Method: (§1) Three P. falciparum strains were used for compound testing; a strain sensitive to chloroquine (CQ) 3D7, CQ-resistant strain Dd2 and P. falciparum gametocyte producing NF54 strain. The 3D7 and Dd2 strains were used to investigate the effect of the compounds on asexual blood stage replication. They were cultured in RPMI 1640/HEPES medium (Gibco, Thermo Scientific, Waltham, MA, USA) containing 10 µg/mL gentamicin (Gibco Thermo Scientific, Waltham, MA, USA,), 50 µg/mL hypoxanthine (Sigma-Aldrich, St. Louis, MO, USA), 0.5% v/v Albumax II (Gibco, Thermo Scientific, Waltham, MA, USA) and 5% hematocrit. Cultures were maintained at 37 °C using a gas mixture containing 5% CO2, 5% O2 and 90% N2. […] To obtain highly synchronized cultures, parasite cultures consisting mainly of ring stages were centrifuged, the pellet was resuspended in 10 mL of 5% w/v sorbitol/ddH20 and incubated for 10 min at room temperature. After washing the cells with RPMI to remove residual sorbitol, they were again cultivated, as described above. Erythrocyte concentrate and serum samples were obtained from the Department of Transfusion Medicine, University Hospital Aachen, Germany. The serum samples were mixed and pooled and donors were kept anonymous. The work with blood components from humans was approved by the Ethics commission of the RWTH University Hospital (EK 007/13).
P. falciparum NF54 parasites were cultured at high parasitemia to induce gametocyte formation. Once stage II gametocytes appeared, 1 mL of culture was aliquoted in triplicate in a 24-well plate with compounds at the respective IC50 and IC90 concentrations that was determined from Malstat assay. The gametocytes were again cultivated for 9 d with the daily replacement of medium. For the first 48 h of cultivation, the gametocytes were treated with test compounds, and subsequently compound free medium was used. On day 9, blood smears were prepared and stained with Giemsa and the gametocytemia was determined by counting the numbers of gametocytes stages IV and V in a total number of 1000 erythrocytes.
Figure 3 Effect of organosulfur compounds on gametocyte development. Cultures rich in stage II gametocyte were incubated with compounds at IC50 and IC90 concentrations for 2 d, and again cultivated for another 7 d with daily replacement of medium. The numbers of stage IV and V gametocytes were determined from Giemsa smears and normalized to 0.5% v/v DMSO treatment which served as negative control (set to 100%). Epoxomicin (Epoxo) at 60 nM served as positive control.

[2] = test system: non-infected erythrocytes; assay: Hemolytic assay; assay type: cell-based, human; conditions: IC50 and IC90 concentrations, 48 h, 37 °C, compared with 0.5% v/v DMSO
Method: Since the malaria parasite replicates in the red blood cell, we determined if the compounds have an effect on non-infected erythrocytes using hemolytic assays. To this end, 1 mL of washed uninfected erythrocytes at 5% hematocrit in regular medium was plated in triplicate in a 96-well plate (200 µL/well) in the presence of compounds at IC50 and IC90 concentrations. Erythrocytes treated with 0.15% w/v saponin were used as lysis control and 0.5% v/v DMSO was used as the negative control. Following 48 h of incubation at 37 °C, the plate was centrifuged at 500× g for 2 min and 100 µL of the supernatant was transferred to another plate and the absorbance was measured at 550 nm with a spectrophotometer.
(§2) Figure 4 Hemolytic and cytotoxic effect of compounds. (a) Hemolytic effect of compounds. […] The absorbance of free hemoglobin was measured at OD550 nm in the supernatant and normalized to 0.15% w/v saponin (set to 100%), which served as positive control in the experiments. 0.5% v/v DMSO was used as negative control. (b) Cytotoxicity effect of compounds on Hela cells. The cells were plated in 96-well microtiter plates and cultured overnight at 37 °C. The following day, the old medium was removed and 100 µL of fresh medium containing serially diluted compounds in corresponding wells at final concentrations ranging from 100 µM to 0.8 µM was added and the culture was incubated for 72 h. After incubation, the medium was replaced by 100 µL fresh drug-free medium and 20 µL MTT (5 mg/mL) was added in each well and incubated for 3 h at 37 °C. After 3 h, the MTT preparation was then removed from each well and 100 µL solubilization solution was added. Plates were then placed on a rotator at about 500 rpm at RT until the formazan precipitate was completely resuspended and the OD was measured at 450 nm. The data are representative of three independent experiments.

[3] = test system: P. falciparum Dd2 strain; assay: Malstat assay, asexual blood stages, CQ-resistant strain Dd2; assay type: cell-based; conditions: Plasmodium falciparum, read-out: IC50 (µM) CQ-Resistant Strain Dd2
Method: as §1
(§3) The antiplasmodial effect of the compounds on P. falciparum asexual blood stage development was carried out using the Malstat assay, as described previously. Compounds dissolved in dimethyl sulfoxide (DMSO) were added to 1% ring stage P. falciparum 3D7 and Dd2 cultures (200 µL/well) in a 96-well plate in triplicate at final concentrations ranging from 100 µM to 0.78 µM. […] CQ at concentrations ranging from 500 nM to 4 nM was used as an internal control in the experiments, while parasites treated with 0.5% v/v DMSO served as the negative control. The parasites were cultured with the compounds for 72 h at 37 °C in the presence of the following gas combination: 5% O2, 5% CO2, and 90% N2. Afterwards, 20 µL of the incubated culture was removed and 100 µL of Malstat reagent (0.1% v/v Triton X-100, 1 g of L-lactate, 0.33 g Tris and 33 mg of 3-acetylpyridine adenine dinucleotide in 100 mL of distilled water, pH 9.0) was added in a new 96-well microtiter plate. Next, 20 µL mixture of NBT/Diaphorase (1:1; 1 mg/mL stock each) was added to the Malstat reaction and the parasite lactate dehydrogenase activity was then quantified by measuring the optical densities at 630 nm. IC50 values were then determined from variable-slope sigmoidal dose-response graphs using the GraphPad Prism program version 5 (GraphPad Software Inc., La Jolla, San Diego, CA, USA).

[4] = test system: P. falciparum 3D7 strain; assay: Malstat assay, asexual blood stages, CQ-sensitive strain 3D7; assay type: cell-based; conditions: Plasmodium falciparum; for IC50: read-out: IC50 (µM) CQ-Sensitive Strain 3D7; for IC90: 90% inhibitory concentration estimated from the IC50
Method: as §1, §3

[5] = MTT cytotoxicity assay, Hela cells; assay type: cell-based; conditions: human, Hela cells (human cervical cancer cell line); for viability at 72 h: about 25 µM
Method: The MTT [3-(4,5-dimethylthiazol-2-yl)-2,5-diphenyltetrazolium bromide] assay was performed using the human cervical cancer cell (Hela) line and the hematologic malignancy human erythroleukemia (HEL) cell line to determine if the compounds were toxic (loss of viability) against human cells. MTT is taken up by viable cells and converted by mitochondrial dehydrogenases to a violet formazan product that cannot diffuse through cell membranes, and therefore crystallizes in viable cells. The adherent Hela cells were plated in 96-well microtiter plates and cultured at 37 °C overnight. Compounds were added to the cultures in different serial concentrations in triplicate the next day, and the cells were incubated for 72 h. DMSO was used as the negative control at a final concentration of 0.5% v/v, and a concentration of 15% v/v DMSO which is toxic was added as the positive control. After 72 h of drug treatment, medium-containing drug was replaced with 100 µL fresh drug-free medium. Then, 20 µL MTT (5 mg/mL) was added to each well and incubated for 3 h at 37 °C. The medium was subsequently removed and 100 µL solubilization solution (5% w/v SDS, 0.1 M HCl in 100% vol. DMSO) was added and incubated for 30 min under rotation at room temperature to solubilize the formazan crystals.
For both cell lines, the optical density (OD) of the solution was measured at 550 nm. The OD-values of cultures treated with compounds were normalized to the OD-values of 0.5% v/v DMSO control (set to 100% viability for Hela or 1 for HEL cell line). IC50 values were calculated from MTT assays using Graphpad Prism (V9).
as §2

[6] = DD2, ring stage parasites, 72 h, Malstat
[7] = 3D7, ring stage parasites, 72 h, Malstat (plasmodial LDH)

CCOC(=O)C1=C(c2ccc(C)cc2)N=S(=O)(N2CCCCCC2)c2ccccc21 (centres unmarked) [Compound 16]
reduction of mature gametocyte numbers [1]: about 50%
hemolytic effect [2]: no hemolytic effect
IC50 [3, 6]: 4.4 ± 0.59 µM
IC50 [4, 7]: 3.1 ± 0.26 µM
IC90 ([4]; 3D7): 27.9 µM
viability at 72 h, 50 µM [5]: > 60%
viability at 72 h [5]: > 90%

CC(C)(C)c1ccc2c(c1)C=C(c1ccccc1)N=S2(=O)N1CCCCCC1 (centres unmarked) [Compound 9]
reduction of mature gametocyte numbers [1]: about 50%
hemolytic effect [2]: no hemolytic effect
IC50 [3, 6]: 6.5 ± 0.87 µM
IC50 [4, 7]: 3.3 ± 1.56 µM
IC90 ([4]; 3D7): 29.7 µM
viability at 72 h, 50 µM [5]: > 60%
viability at 72 h [5]: > 90%

CCOC(=O)C1=C(c2cccs2)N=S(=O)(N2CCCCCC2)c2ccccc21 (centres unmarked) [Compound 19]
IC50 [4, 7]: 31.5 ± 4.9 µM

CCOC(=O)C1=C(c2cccs2)N=S(=O)(N2CCCCCC2)c2c1cc1ccccc1c2Cl (centres unmarked) [Compound 4]
IC50 [4, 7]: 9.1 ± 2.59 µM

O=[S@@]1(c2ccccc2)=Nc2ccccc2-c2ncc3ccccc3c21 [Compound 23]
IC50 [4, 7]: 24.9 ± 1.06 µM

CN1CCC[C@H](NC(=S)Nc2cc(C(F)(F)F)cc(C(F)(F)F)c2)C1 [Compound 20]
IC50 [4, 7]: 8 ± 0.53 µM

CCOC(=O)C1=C(C)N=S2(=NC(c3ccccc3)=CC(c3ccccc3)=C2)c2ccccc21 (centres unmarked) [Compound 1]
reduction of mature gametocyte numbers (in words) [1]: only minor reduction
reduction in stage IV and V gametocyte numbers [1]: very high reduction
hemolytic effect [2]: no hemolytic effect
IC50 [4, 7]: 3.8 ± 0.66 µM
IC90 ([4]; 3D7): 34.2 µM
viability at 72 h, 50 µM [5]: > 60%
viability at 72 h [5]: > 90%

Cc1ccc2c(c1)C=C(c1ccccc1)N=S2(=O)N1CCCCCC1 (centres unmarked) [Compound 12]
IC50 [4, 7]: 21.3 ± 4.05 µM

CC(C)C[C@@H](CN=[S@](C)(=O)c1ccccc1)NC(=S)Nc1cc(C(F)(F)F)cc(C(F)(F)F)c1 [Compound 21]
IC50 [4, 7]: 14.1 ± 1.5 µM

CCOC(=O)C1=C(C)N=S(=O)(N2CCCCCC2)c2ccc([N+](=O)[O-])cc21 (centres unmarked) [Compound 15]
reduction of mature gametocyte numbers (in words) [1]: only minor reduction
reduction in stage IV and V gametocyte numbers [1]: very high reduction
hemolytic effect [2]: no hemolytic effect
IC50 [4, 7]: 5.2 ± 1.95 µM
IC90 ([4]; 3D7): 46.8 µM
viability at 72 h, 50 µM [5]: > 60%
viability at 72 h [5]: > 90%

CCOC(=O)C1=C(C)N=S(=O)(N2CCCCCC2)c2ccc(C)cc21 (centres unmarked) [Compound 11]
IC50 [4, 7]: 12 ± 4.28 µM

CCN(CC)CCCC(C)Nc1ccnc2cc(Cl)ccc12 (centres unmarked) [Chloroquine, reference compound]
IC50 ([3]; DD2, 72 h): 0.14 ± 0.063 µM
IC50 ([4]; 3D7, 72 h): 0.02 ± 0.004 µM

Cc1cccc2c1S(=O)(N1CCCCCC1)=NC(c1ccc(Br)cc1)=C2 (centres unmarked) [Compound 8]
IC50 [4, 7]: 12.5 ± 3.27 µM

CCOC(=O)C1=C(C)N=S2(=NC(c3ccccc3)=CC(c3ccc(Cl)cc3)=C2)c2ccccc21 (centres unmarked) [Compound 2]
reduction of mature gametocyte numbers (in words) [1]: only minor reduction
reduction in stage IV and V gametocyte numbers [1]: very high reduction
hemolytic effect [2]: no hemolytic effect
IC50 [4, 7]: 3.12 ± 0.58 µM
IC90 ([4]; 3D7): 27.9 µM
viability at 72 h, 50 µM [5]: > 60%
viability at 72 h [5]: > 90%

O=[N+]([O-])c1ccc2c(c1)C=C(c1ccccc1)N=S2(=O)N1CCCCCC1 (centres unmarked) [Compound 14]
IC50 [4, 7]: 10.3 ± 0.9 µM

CC(C)[C@@H](CN=[S@@](C)(=O)c1ccccc1)NC(=S)Nc1cc(C(F)(F)F)cc(C(F)(F)F)c1 [Compound 22]
IC50 [4, 7]: 15.9 ± 1.46 µM

CCOC(=O)C1=C(c2cccs2)N=S(=O)(N2CCCCCC2)c2c(C)cccc21 (centres unmarked) [Compound 7]
IC50 [4, 7]: 35.8 ± 5.11 µM

CCOC(=O)C1=C(c2ccccc2)N=S(=O)(N2CCCCCC2)c2ccccc21 (centres unmarked) [Compound 18]
IC50 [4, 7]: 26.5 ± 1.19 µM

O=S1(N2CCCCCC2)=NC(c2ccccc2)=Cc2cccc(Cl)c21 (centres unmarked) [Compound 13]
IC50 [4, 7]: 20.3 ± 1.69 µM

O=S1(N2CCCCCC2)=NC(c2ccccc2)=Cc2ccccc21 (centres unmarked) [Compound 10]
IC50 [4, 7]: 46.4 ± 2.67 µM

O=S1(N2CCCCCC2)=NC(c2ccc(Br)cc2)=Cc2ccccc21 (centres unmarked) [Compound 6]
IC50 [4, 7]: 10.6 ± 1.53 µM

O=S1(c2ccc(Br)cc2)=NC(c2ccccc2)=CC(c2ccc(Cl)cc2)=N1 (centres unmarked) [Compound 3]
IC50 [4, 7]: 22.1 ± 1.06 µM
